According to ChEMBL document CHEMBL3132769, “Fragment growing to retain or alter the selectivity of anchored kinase hinge-binding fragments” (Medchemcomm, 2014):

Experiments:
[1] = target: Mitogen-activated protein kinase kinase kinase kinase 4 (Homo sapiens) (UniProt O95819); test: Inhibition of human HGK catalytic domain expressed in baculovirus assessed as substrate phosphorylation using fluorescence-labelled peptides as substrate at 0.2 uM after 90 mins by microfluidic peptide phosphorylation assay
[2] = tested on: Tyrosine-protein kinase ABL1 (Homo sapiens), P00519 [Q252H]; test: Inhibition of human truncated ABL Q252H mutant expressed in baculovirus assessed as substrate phosphorylation using fluorescence-labelled peptides as substrate at 420 uM after 90 mins by microfluidic peptide phosphorylation assay
[3] = target: T1, Serine/threonine-protein kinase Sgk2 (Homo sapiens) (UniProt Q9HBY8); test: Inhibition of human full length SGK2 expressed in baculovirus assessed as substrate phosphorylation using fluorescence-labelled peptides as substrate at 420 uM after 90 mins by microfluidic peptide phosphorylation assay
T1 sequence (whole entry): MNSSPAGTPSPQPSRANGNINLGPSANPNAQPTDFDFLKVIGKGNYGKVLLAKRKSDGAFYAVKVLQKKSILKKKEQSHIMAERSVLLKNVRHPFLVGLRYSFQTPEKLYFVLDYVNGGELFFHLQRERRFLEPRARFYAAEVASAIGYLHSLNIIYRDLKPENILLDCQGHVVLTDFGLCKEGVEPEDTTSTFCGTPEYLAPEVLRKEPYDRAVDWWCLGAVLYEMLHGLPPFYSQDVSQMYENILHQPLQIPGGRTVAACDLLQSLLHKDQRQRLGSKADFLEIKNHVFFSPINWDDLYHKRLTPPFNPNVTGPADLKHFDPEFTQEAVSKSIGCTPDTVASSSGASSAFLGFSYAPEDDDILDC

[4] = target: Protein kinase C beta type (Homo sapiens) (UniProt P05771); test: Inhibition of human truncated PKC beta1 expressed in baculovirus assessed as substrate phosphorylation using fluorescence-labelled peptides as substrate at 9 uM after 90 mins by microfluidic peptide phosphorylation assay
[5] = target: Casein kinase I isoform alpha (Homo sapiens) (UniProt P48729); test: Inhibition of human full length CSNK1A1 expressed in baculovirus assessed as substrate phosphorylation using fluorescence-labelled peptides as substrate at 2 uM after 90 mins by microfluidic peptide phosphorylation assay
[6] = target: T2, Protein kinase C epsilon type (Homo sapiens) (UniProt Q02156); details: 0.1 uM
T2 sequence (whole entry): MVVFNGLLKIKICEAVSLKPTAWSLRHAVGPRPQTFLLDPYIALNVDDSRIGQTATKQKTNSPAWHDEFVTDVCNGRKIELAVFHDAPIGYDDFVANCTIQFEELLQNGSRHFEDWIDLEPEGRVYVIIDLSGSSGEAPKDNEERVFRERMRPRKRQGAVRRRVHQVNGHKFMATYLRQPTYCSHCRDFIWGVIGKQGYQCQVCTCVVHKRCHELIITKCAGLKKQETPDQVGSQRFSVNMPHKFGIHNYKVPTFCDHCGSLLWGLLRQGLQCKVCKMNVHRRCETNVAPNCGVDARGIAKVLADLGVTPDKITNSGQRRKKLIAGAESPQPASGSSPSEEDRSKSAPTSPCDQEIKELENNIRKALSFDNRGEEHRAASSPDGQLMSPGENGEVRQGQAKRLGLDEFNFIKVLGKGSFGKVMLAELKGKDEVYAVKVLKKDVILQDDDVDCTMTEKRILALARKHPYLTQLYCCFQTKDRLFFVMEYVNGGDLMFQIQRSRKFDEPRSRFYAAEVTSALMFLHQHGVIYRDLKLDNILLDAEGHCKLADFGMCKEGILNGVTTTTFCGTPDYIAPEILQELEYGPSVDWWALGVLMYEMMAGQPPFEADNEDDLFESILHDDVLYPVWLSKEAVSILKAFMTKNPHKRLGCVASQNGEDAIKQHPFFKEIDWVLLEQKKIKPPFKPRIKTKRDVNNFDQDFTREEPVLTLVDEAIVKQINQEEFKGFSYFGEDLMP
Description: Inhibition of human truncated PKC epsilon expressed in baculovirus assessed as substrate phosphorylation using fluorescence-labelled peptides as substrate at 0.1 uM after 90 mins by microfluidic peptide phosphorylation assay

[7] = target: T3, Serine/threonine-protein kinase Nek2 (Homo sapiens) (UniProt P51955); test: Inhibition of human full length NEK2 expressed in baculovirus assessed as substrate phosphorylation using fluorescence-labelled peptides as substrate at 95 uM after 90 mins by microfluidic peptide phosphorylation assay
T3 sequence (whole entry): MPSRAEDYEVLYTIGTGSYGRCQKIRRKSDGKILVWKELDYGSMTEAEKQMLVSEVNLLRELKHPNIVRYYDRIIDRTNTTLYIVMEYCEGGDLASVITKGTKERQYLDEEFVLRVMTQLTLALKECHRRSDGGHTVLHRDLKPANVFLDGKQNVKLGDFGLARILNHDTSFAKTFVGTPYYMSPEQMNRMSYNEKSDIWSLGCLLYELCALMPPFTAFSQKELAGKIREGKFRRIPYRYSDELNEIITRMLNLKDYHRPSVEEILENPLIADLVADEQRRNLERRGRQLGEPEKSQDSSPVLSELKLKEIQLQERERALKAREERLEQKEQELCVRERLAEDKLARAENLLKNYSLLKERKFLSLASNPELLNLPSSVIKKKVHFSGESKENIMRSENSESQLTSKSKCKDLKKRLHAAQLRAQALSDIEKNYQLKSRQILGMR

[8] = target: T4, Serine/threonine-protein kinase Sgk3 (Homo sapiens) (UniProt Q96BR1); test: Inhibition of human full length SGK3 expressed in baculovirus assessed as substrate phosphorylation using fluorescence-labelled peptides as substrate at 8 uM after 90 mins by microfluidic peptide phosphorylation assay
T4 sequence (whole entry): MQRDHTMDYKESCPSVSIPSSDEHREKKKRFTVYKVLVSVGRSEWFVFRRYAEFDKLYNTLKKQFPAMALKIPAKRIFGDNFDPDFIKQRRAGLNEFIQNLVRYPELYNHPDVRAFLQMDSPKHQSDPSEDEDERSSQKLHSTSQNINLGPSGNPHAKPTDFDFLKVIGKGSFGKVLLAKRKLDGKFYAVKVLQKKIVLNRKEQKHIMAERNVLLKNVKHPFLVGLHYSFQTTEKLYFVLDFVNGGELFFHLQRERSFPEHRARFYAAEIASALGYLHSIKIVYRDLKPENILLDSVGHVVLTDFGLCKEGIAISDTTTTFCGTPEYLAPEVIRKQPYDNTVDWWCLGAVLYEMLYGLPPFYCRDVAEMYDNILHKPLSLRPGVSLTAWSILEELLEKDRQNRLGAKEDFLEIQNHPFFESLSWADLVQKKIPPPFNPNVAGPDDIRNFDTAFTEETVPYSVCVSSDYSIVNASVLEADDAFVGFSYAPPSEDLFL

[9] = target: Vascular endothelial growth factor receptor 2 (Homo sapiens) (UniProt P35968); test: Inhibition of human KDR cytoplasmic domain expressed in baculovirus assessed as substrate phosphorylation using fluorescence-labelled peptides as substrate at 70 uM after 90 mins by microfluidic peptide phosphorylation assay
[10] = target: Ribosomal protein S6 kinase alpha-1 (Homo sapiens) (UniProt Q15418); test: Inhibition of human full length RSK1 expressed in baculovirus assessed as substrate phosphorylation using fluorescence-labelled peptides as substrate at 1000 uM after 90 mins by microfluidic peptide phosphorylation assay
Ribosomal protein S6 kinase alpha-1 (Homo sapiens), sequence (Q15418 whole entry): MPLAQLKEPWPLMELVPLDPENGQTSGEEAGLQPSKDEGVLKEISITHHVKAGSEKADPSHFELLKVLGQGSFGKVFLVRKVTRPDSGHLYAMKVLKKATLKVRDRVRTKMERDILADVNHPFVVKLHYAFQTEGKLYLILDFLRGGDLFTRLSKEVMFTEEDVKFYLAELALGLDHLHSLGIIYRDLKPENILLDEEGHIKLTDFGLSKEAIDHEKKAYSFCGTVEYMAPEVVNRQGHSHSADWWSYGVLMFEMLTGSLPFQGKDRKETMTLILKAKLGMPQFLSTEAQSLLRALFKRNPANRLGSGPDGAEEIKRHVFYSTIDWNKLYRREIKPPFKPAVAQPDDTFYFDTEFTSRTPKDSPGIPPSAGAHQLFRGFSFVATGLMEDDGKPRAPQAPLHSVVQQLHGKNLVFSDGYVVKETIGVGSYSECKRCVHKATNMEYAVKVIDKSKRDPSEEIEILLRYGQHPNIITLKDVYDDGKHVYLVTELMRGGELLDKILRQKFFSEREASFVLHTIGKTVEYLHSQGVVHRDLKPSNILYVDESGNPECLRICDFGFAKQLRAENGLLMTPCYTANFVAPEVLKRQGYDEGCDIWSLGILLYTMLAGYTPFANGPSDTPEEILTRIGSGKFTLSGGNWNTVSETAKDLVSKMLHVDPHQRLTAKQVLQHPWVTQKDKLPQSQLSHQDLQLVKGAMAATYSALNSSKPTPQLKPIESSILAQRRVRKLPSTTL

Mitogen-activated protein kinase kinase kinase kinase 4 (Homo sapiens), sequence (O95819 2-1239 limits assumed): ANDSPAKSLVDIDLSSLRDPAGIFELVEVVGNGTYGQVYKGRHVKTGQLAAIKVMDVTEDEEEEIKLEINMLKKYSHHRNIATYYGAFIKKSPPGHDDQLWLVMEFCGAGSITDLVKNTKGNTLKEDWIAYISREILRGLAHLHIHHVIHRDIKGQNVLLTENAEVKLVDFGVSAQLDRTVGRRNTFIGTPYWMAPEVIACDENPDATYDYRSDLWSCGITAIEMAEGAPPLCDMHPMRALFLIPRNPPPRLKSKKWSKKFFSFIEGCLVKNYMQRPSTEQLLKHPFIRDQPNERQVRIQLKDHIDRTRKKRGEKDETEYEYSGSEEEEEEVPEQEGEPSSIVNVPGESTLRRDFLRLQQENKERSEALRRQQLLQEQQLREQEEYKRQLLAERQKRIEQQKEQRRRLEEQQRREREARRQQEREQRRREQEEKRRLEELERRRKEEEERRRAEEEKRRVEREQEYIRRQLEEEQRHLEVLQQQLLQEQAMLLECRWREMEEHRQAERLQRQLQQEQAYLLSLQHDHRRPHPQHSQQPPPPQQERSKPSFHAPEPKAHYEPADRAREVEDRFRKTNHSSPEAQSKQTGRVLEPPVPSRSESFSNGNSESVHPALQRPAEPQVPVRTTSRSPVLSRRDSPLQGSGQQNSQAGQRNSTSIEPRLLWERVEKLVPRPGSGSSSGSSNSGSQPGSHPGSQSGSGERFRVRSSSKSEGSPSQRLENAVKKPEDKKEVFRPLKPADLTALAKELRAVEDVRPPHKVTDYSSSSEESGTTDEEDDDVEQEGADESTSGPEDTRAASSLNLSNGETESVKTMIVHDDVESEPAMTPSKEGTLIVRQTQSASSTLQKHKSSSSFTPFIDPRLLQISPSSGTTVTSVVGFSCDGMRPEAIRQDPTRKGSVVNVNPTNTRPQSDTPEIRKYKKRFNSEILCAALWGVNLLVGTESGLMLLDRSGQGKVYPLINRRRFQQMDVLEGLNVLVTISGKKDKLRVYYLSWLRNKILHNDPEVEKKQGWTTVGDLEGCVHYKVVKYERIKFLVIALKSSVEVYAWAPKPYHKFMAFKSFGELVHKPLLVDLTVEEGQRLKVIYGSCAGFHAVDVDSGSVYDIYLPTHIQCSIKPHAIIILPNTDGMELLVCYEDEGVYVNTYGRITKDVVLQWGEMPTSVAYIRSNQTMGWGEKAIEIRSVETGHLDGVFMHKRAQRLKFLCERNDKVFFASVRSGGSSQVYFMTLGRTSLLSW
Protein kinase C beta type (Homo sapiens), sequence (P05771 2-671 limits assumed): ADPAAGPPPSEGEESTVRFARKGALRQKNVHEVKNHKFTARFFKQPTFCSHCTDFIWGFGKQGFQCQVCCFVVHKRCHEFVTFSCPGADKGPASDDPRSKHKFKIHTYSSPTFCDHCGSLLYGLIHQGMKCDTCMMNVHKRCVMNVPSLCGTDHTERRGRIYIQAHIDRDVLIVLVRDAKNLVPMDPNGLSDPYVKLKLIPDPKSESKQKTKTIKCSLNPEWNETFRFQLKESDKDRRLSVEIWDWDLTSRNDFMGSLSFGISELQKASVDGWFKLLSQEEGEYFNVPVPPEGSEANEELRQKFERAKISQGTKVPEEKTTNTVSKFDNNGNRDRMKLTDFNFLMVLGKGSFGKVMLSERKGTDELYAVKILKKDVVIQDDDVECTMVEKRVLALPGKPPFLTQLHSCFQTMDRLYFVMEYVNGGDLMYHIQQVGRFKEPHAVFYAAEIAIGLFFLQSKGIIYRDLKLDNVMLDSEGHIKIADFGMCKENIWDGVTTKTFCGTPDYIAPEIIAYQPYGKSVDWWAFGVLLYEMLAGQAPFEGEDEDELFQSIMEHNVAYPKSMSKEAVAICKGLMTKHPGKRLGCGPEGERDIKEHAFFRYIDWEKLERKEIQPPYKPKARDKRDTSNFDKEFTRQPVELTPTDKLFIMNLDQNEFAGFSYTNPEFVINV
Casein kinase I isoform alpha (Homo sapiens), sequence (P48729 2-337 limits assumed): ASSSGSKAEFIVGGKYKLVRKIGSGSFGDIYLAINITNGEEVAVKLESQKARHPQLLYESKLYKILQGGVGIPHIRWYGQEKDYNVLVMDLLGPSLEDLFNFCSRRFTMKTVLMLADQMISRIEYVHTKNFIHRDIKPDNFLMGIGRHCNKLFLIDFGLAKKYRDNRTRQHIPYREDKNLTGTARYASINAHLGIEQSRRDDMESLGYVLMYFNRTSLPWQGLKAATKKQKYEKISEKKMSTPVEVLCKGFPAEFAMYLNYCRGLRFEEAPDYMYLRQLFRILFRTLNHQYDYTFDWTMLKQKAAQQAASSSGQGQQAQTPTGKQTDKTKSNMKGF
Vascular endothelial growth factor receptor 2 (Homo sapiens), sequence (P35968 whole entry, the tested form may be a part): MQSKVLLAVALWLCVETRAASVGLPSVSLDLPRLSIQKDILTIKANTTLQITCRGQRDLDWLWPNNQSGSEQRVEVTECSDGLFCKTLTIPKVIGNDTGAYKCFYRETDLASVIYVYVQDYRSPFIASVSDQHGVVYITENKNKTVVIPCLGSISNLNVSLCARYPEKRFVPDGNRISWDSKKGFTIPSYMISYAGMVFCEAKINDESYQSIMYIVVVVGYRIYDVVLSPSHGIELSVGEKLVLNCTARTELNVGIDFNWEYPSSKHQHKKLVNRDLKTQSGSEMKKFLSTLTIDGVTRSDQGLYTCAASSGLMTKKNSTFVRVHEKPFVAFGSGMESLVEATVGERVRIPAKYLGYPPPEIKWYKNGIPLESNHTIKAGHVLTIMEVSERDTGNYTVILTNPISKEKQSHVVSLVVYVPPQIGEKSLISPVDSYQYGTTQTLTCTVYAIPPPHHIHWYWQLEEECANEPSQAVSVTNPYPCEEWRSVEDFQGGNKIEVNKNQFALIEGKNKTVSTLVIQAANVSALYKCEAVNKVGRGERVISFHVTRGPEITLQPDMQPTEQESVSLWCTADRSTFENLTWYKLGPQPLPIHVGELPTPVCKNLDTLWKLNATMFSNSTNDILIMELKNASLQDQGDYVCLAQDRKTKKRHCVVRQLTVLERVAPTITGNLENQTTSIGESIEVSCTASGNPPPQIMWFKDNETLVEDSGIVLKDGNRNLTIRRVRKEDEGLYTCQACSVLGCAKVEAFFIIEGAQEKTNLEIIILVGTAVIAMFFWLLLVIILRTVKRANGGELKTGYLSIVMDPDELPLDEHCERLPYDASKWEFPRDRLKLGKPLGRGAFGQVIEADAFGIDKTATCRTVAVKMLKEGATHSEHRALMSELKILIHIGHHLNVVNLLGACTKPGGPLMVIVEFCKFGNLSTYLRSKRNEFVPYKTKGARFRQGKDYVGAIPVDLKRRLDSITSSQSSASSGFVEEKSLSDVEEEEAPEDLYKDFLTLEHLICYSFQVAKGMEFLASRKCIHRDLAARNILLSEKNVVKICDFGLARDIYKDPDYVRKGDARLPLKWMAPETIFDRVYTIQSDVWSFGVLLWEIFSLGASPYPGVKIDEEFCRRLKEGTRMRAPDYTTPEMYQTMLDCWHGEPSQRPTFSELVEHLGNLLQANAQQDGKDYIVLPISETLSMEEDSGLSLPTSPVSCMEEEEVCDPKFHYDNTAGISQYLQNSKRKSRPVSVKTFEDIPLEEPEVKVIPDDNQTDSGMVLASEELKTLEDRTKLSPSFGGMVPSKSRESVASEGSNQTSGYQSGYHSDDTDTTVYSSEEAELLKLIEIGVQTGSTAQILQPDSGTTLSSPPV

Work on `Clc1ccc(C2(c3ccc(-c4ncnc5[nH]cnc45)cc3)CCNCC2)cc1` yielded an inhibition [1] of 3%.
`c1nc(N2CCOCC2)c2nc[nH]c2n1` gave an inhibition [2] of 64% and an inhibition [3] of 76.5%.
`NCC1CN(c2ncnc3[nH]c4cnccc4c23)CCO1` (stereo not given) showed an inhibition [4] of 22.5%.
In the case of `NC1CCN(c2ncnc3[nH]ccc23)CC1`, the inhibition [5] is reported as 9.5%.
`C[C@H](CN(C)C)Oc1nc(Nc2cc3cccc(Cl)c3cn2)cnc1C#N` gave an inhibition [6] of 0%.
Work on `NCCc1ccc(-c2ncnc3[nH]cnc23)cc1` yielded an inhibition [7] of 0%.
Work on `NCC1CCN(c2ncnc3[nH]ccc23)CC1` yielded an inhibition [8] of 83%.
`CNCc1ccc(-c2ncnc3[nH]cnc23)cc1` gave an inhibition [9] of 64%.
For `c1cnc2[nH]ccc2c1`, the inhibition [10] was 60.5%.
